Assays:
[1] = target: T1, integrin α4β7 (Homo sapiens, UniProt P13612+P26010); experiment: Assessment of VCAM-1/α4β7 binding antagonistic activity (RPMI-8866 cells binding to VCAM-1); type: cell-based; details: RPMI-8866 human B lymphoma cells binding to recombinant human VCAM-1, binding buffer with 4 mM MnCl2; read-out: integrin VCAM/α4 binding antagonistic activity (IC50) α4β7
T1 construct: lymphoma cell strain RPMI-8866 of human B cells, known to express integrin α4β7; endogenous in cells; host or cells: RPMI-8866, human B-cell lymphoma line
T1 sequence (P13612 34-1032): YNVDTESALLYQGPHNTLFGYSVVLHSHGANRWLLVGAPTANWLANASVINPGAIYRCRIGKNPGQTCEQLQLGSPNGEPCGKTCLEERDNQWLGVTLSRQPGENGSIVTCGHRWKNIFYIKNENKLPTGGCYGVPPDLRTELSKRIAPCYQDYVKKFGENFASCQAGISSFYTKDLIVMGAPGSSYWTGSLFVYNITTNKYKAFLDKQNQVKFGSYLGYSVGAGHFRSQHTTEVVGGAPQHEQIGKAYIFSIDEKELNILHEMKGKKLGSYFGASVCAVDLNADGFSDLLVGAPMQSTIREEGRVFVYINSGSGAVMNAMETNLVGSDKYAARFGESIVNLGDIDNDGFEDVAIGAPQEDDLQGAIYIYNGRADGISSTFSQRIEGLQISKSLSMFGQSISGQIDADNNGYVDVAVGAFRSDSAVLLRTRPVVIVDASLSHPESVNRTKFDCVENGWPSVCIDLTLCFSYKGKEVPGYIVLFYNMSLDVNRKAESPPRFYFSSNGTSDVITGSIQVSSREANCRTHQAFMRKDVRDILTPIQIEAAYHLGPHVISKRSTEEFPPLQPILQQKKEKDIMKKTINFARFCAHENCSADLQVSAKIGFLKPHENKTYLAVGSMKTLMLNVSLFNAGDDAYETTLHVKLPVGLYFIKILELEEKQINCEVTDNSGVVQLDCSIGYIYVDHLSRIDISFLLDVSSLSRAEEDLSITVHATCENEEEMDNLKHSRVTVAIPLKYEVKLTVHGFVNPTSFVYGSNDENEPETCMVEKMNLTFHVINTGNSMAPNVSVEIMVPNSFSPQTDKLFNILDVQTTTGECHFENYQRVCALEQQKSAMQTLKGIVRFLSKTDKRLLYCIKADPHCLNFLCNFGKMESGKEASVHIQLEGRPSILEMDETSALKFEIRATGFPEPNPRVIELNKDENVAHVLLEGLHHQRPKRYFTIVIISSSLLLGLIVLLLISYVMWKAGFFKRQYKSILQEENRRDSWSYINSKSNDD
T1 sequence (P26010 20-798): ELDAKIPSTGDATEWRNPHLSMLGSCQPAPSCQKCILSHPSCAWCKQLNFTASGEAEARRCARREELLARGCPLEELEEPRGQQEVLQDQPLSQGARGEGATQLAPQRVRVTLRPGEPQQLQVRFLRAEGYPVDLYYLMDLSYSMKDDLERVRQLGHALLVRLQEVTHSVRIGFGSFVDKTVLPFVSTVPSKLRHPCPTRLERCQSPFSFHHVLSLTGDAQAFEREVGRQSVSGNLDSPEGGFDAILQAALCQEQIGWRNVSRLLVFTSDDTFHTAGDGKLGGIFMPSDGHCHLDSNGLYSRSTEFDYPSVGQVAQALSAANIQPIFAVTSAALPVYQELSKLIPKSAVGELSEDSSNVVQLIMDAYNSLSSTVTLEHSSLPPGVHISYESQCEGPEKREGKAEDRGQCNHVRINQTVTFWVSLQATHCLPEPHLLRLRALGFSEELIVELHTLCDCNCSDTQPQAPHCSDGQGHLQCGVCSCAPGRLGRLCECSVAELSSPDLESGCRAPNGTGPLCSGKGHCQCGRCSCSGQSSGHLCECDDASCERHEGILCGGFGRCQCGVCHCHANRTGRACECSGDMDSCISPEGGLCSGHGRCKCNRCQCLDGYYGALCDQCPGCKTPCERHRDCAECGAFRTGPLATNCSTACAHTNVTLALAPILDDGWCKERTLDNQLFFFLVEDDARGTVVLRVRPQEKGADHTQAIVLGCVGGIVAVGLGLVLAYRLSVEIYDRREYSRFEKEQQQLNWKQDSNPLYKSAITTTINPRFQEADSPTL
Procedure: The capacity of a test substance antagonistic to the binding of lymphoma cell strain RPMI-8866 of human B cells, known to express integrin α4β7, to VCAM-1 was determined.
(§1) 100 μl/well of a solution (500 ng/ml) of recombinant human VCAM-1 (R & D systems) solution diluted with buffer A (0.1 M NaHCO3, pH 9.6) was added to a micro titer plate having 96 wells (Nunc Maxisorp). After the incubation at 4° C. overnight, unbound VCAM-1 was removed by washing once with PBS. After completion of the washing, a buffer (buffer B) obtained by diluting Block Ace (Dainippon Pharmaceutical Co., Ltd.) with PBS to 1/4 concentration was added in an amount of 150 μl/well. After the incubation at room temperature for 1 hour, buffer B was removed and the plate was washed with PBS once.
RPMI-8866 cells were washed with DMEM twice and incubated in Dulbecco modified Eagle medium containing 10 μg/ml of Calcein-AM (Wako Pure Chemical Industries, Ltd.) (SIGMA, hereinafter referred to as “DMEM”) in dark place at 37° C. for 30 minutes to label with fluorescence. The cells were again suspended in a binding buffer (20 mM HEPES, DMEM containing 0.1% BSA) containing 4 mM of MnCl2.
(§2) 50 μl of a test substance of various concentrations obtained by the dilution with the binding buffer was added to the plate. Immediately thereafter, 50 μl (final volume: 100 μl/well) of the fluorescent RPMI-8866 cells (4×10^6 cells/ml) were added thereto, and they were incubated in dark place at room temperature for 30 minutes. After the shaking on a plate shaker (IKA MTS-4) at 800 rpm for 30 seconds, the solution was immediately removed to remove the unbound cells. The fluorescence quantity of the bound cells remaining in the wells was determined with a fluorescent plate reader (Wallac 1420 ARVO multi-label counter) (filter excitation wave length: 485 nm, emission wave length: 535 nm). The fluorescent strength thus obtained is proportional to the number of RPMI-8866 cells bound to VCAM-1 and remaining on the plate. The binding rate of each test material in various concentrations was determined while the fluorescent strength of the test material-free well was determined to be 100%.

[2] = target: T2, integrin α4β1 (Homo sapiens, UniProt P05556+P13612); experiment: Assessment of VCAM-1/α4β1 binding antagonist activity (Jurkat cells binding to VCAM-1); type: cell-based; details: Jurkat human T cells binding to recombinant human VCAM-1; read-out: integrin VCAM/α4 binding antagonistic activity (IC50) α4β1
T2 construct: cell strain Jurkat (ATCC TIB-152) of human T cells, known to express integrin α4β1; endogenous in cells; host or cells: Jurkat (ATCC TIB-152), human T cells
T2 sequence (P05556 21-798, one chain of several): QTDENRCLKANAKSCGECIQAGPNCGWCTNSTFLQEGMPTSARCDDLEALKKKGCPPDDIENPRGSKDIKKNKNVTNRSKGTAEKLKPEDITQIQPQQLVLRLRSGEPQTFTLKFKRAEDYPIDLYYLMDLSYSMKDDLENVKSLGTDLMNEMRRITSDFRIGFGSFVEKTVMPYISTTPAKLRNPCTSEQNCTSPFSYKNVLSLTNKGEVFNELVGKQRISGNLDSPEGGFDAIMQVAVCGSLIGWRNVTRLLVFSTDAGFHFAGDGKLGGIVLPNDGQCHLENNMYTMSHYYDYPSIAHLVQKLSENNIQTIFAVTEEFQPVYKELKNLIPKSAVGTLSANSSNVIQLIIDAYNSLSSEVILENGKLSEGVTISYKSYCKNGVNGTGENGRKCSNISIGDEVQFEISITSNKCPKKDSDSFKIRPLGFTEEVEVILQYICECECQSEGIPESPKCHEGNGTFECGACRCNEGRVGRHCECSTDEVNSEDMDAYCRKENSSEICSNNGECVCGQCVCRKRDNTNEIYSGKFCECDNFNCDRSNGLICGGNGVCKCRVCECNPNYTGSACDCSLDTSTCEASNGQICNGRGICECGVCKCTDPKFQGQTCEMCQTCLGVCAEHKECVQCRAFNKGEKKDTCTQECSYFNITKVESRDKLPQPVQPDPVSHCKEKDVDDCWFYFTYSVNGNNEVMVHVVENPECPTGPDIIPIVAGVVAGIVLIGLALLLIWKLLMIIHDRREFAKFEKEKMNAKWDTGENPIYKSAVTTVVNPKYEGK
Procedure: The capacity of a test substance antagonistic to the binding of cell strain Jurkat (ATCC TIB-152) of human T cells, known to express integrin α4β1, to VCAM-1 was determined.
as §1
Jurkat cells were washed with Dulbecco modified Eagle medium (SIGMA, hereinafter referred to as “DMEM”) twice and then incubated in DMEM containing 10 μg/ml of Calcein-AM (Wako Pure Chemical Industries, Ltd.) at 37° C. in dark place for 30 minutes to label with fluorescence. The cells were again suspended in a binding buffer (20 mM HEPES, DMEM containing 0.1% BSA).
as §2, with “Jurkat” for “RPMI-8866”

Structure (SMILES) | IC50 [1] | IC50 [2]
CN(C)c1ccc2c(c1)c(=O)n(-c1ccc(C[C@H](NC(=O)c3c(Cl)cccc3Cl)C(=O)O)cc1)c(=O)n2C [Reference Example 108] | 3.3 nM | 57 nM
Cc1ccc(Cn2c(=O)n(-c3ccc(C[C@H](NC(=O)c4c(Cl)cccc4Cl)C(=O)O)cc3)c(=O)c3ccccc32)cc1 [compound 118] | 16 nM | 385 nM
CCN(C)c1nc2ccccc2c(=O)n1-c1ccc(C[C@H](NC(=O)c2c(Cl)cccc2Cl)C(=O)O)cc1 [compound 129] | 76.4 nM | 2020 nM
Cc1ccccc1Cn1c(=O)n(-c2ccc(C[C@H](NC(=O)c3c(Cl)cccc3Cl)C(=O)O)cc2)c(=O)c2ccccc21 [compound 120] | 24 nM | 500 nM
O=C(N[C@@H](Cc1ccc(-n2c(=O)[nH]c3cc(F)ccc3c2=O)cc1)C(=O)O)c1c(Cl)cccc1Cl [compound 78] | 9.6 nM | 180 nM
O=C(N[C@@H](Cc1ccc(-n2c(=O)c3ccccc3n(Cc3ccccc3Cl)c2=O)cc1)C(=O)O)c1c(Cl)cccc1Cl [compound 119] | 21 nM | 440 nM
Cc1cccc2nnn(-c3ccc(C[C@H](NC(=O)c4c(Cl)cccc4Cl)C(=O)O)cc3)c(=O)c12 [compound 89] | 2.7 nM | 41 nM
CCC(C)n1c(=O)n(-c2ccc(C[C@H](NC(=O)c3c(Cl)cccc3Cl)C(=O)O)cc2)c(=O)c2cc([N+](=O)[O-])ccc21 (stereo partly drawn) [compound 58] | 31.6 nM | 1070 nM
O=C(N[C@@H](Cc1ccc(-n2c(=O)c3ccccc3n(Cc3c(F)cccc3F)c2=O)cc1)C(=O)O)c1c(Cl)cccc1Cl [Example 4] | 2.8 nM | 26 nM
Cn1c(=O)n(-c2ccc(C[C@H](NC(=O)c3c(Cl)cccc3C(F)(F)F)C(=O)O)cc2)c(=O)c2ccccc21 [compound 164] | 7.1 nM | 120 nM
O=C(N[C@@H](Cc1ccc(-n2c(=O)[nH]c3c(Cl)ccc(Cl)c3c2=O)cc1)C(=O)O)c1c(Cl)cccc1Cl [compound 76] | 13 nM | 192 nM
COc1ccc2nnn(-c3ccc(C[C@H](NC(=O)c4c(Cl)cccc4Cl)C(=O)O)cc3)c(=O)c2c1 [Reference Example 84] | 20 nM | 158 nM
COc1ccc2c(c1)N(C)C(=O)N(c1ccc(C[C@H](NC(=O)c3c(Cl)cccc3Cl)C(=O)O)cc1)S2(=O)=O [compound 99] | 2 nM | 12 nM
CN1C(=O)N(c2ccc(C[C@H](NC(=O)c3c(Cl)cccc3Cl)C(=O)O)cc2)S(=O)(=O)c2ccc(C(F)(F)F)cc21 [compound 100] | 2.4 nM | 11 nM
CCOc1nc2cccc(C)c2c(=O)n1-c1ccc(C[C@H](NC(=O)c2c(Cl)cccc2Cl)C(=O)O)cc1 [compound 94] | 6 nM | 1150 nM
O=C(N[C@@H](Cc1ccc(-n2c(=O)c3ccccc3n(Cc3c(F)cccc3Cl)c2=O)cc1)C(=O)O)c1c(Cl)cccc1Cl [compound 121] | 14 nM | 109 nM
Cn1c(=O)n(-c2ccc(C[C@H](NC(=O)c3c(Cl)cccc3Cl)C(=O)O)cc2)c(=O)c2cc([N+](C)(C)C)ccc21 [Reference Example 112] | 1.1 nM | 37 nM
Cn1c(=O)n(-c2ccc(C[C@H](NC(=O)c3c(Cl)cccc3Cl)C(=O)NO)cc2)c(=O)c2ccccc21 [Reference Example 211] | 20 nM | 250 nM
Cn1c(=O)n(-c2ccc(C[C@H](NC(=O)c3c(Cl)cccc3Cl)C(=O)O)cc2)c(=O)c2cc(N3CCCC3)ccc21 [compound 110] | 4.1 nM | 55 nM
CC(C)CNc1nc2ccccc2c(=O)n1-c1ccc(C[C@H](NC(=O)c2c(Cl)cccc2Cl)C(=O)O)cc1 [compound 126] | 70 nM | 1580 nM
CCOc1nc2ccc(F)cc2c(=O)n1-c1ccc(C[C@H](NC(=O)c2c(Cl)cccc2Cl)C(=O)O)cc1 [compound 92] | 5.7 nM | 1340 nM

From patent publication US7605165B2, “Phenylalanine derivatives” (Ajinomoto Co., Inc., priority 2002, dated 2009)
